# In patent US20030216413A1, “Catecholamine pharmaceutical compositions and methods” (priority 2000, published 2003):
# Where a name gives a salt, the structure may show the parent alone.
# Experiments:
# [1] = daily injections of 1 mg/kg for seven days; cited from earlier work
# [2] = Treatment of a patient with asthma (Examples 1-3)
# Procedure: A patient presents with asthma complicated by degenerative heart disease and has variously used 0.25% or 1% isoproterenol aerosols, 0.10-0.20 mg epinephrine-bitartrate inhalers, and 90 μg albuterol every day at 4-6 hour intervals. […] The subject is administered an aerosol composition comprising 0.075% isoproterenol and 1.0% ascorbic acid.
# A patient presents with asthma and has previously used 90 μg albuterol every day at 4-6 hour intervals. […] The subject is administered composition comprising 50 μg albuterol and […] morphine sulfate.
# A patient presents with asthma and has previously used a 0.20 mg/dose epinephrine bitartrate inhaler every day at 6 hour intervals. The subject is administered a composition delivering a unit dose comprising 0.03 mg epinephrine bitatrate and 0.2 mg EDTA from a conventional inhaler.
# [3] = 1:100,000 sterile aqueous solution; cited from earlier work
# [4] = 1:1000 or 1:10,000 epinephrine in sterile aqueous solution; cited from earlier work
# [5] = 1:1000 to 1:10,000 solutions; cited from earlier work
compound,measurement,setting,value
C[C@H](N)Cc1ccccc1 [D-amphetamine],side effects of the typical treatment,[1],Side effects often result
CC(C)(C)NCC(O)c1ccc(O)c(CO)c1 (centres unmarked) [albuterol],adverse side effects,"[2]; human, in vivo",unacceptable side effects
same,control of asthma / symptom relief,[2]; patient with asthma,not well controlled
CNC[C@H](O)c1ccc(O)c(O)c1 [epinephrine hydrochloride],duration of beneficial effect of conventional treatment,[3],about 15 minutes
CNC[C@H](O)c1ccc(O)c(O)c1 [epinephrine-bitartrate],adverse side effects,"[2]; human, in vivo",unacceptable side effects
CNC[C@H](O)c1ccc(O)c(O)c1 [epinephrine],side effects of conventional formulations,[4],"fear, anxiety, restlessness, and sleeplessness, dizziness and palpitations"
same,duration of action of conventional treatment,[5],only a few minutes
CC(C)NCC(O)c1ccc(O)c(O)c1 (centres unmarked) [isoproterenol],adverse side effects,[2]; patient with asthma,unacceptable side effects
